Measured values reported in US10281476B2, “Methods to identify modulators of RyR calcium channels” (REGENTS OF THE UNIVERSITY OF MINNESOTA, priority 2013, dated 2019).
Where no end group is shown, it is not given here.

Key:
[1] = system: permeabilized cardiomyocytes; test: Ca2+ sparks and SR Ca2+ content in permeabilized myocytes; type: cell-based, rat
Protocol: Myocytes were permeabilized with saponin (50μg/mL) for 60 seconds and placed in internal solution composed of EGTA 0.5 mmol/L; HEPES 10 mmol/L; Kaspartate 120 mmol/L; ATP 5 mmol/L; free MgCl2 1 mmol/L, reduced glutathione 10 mmol/L; and free [Ca2+] 50nmol/L (calculated using MaxChelator), creatine phosphokinase 5 U/mL, phosphocreatine 10 mmol/L, dextran 4% Fluo-4 0.025 mmol/L, pH 7.2. Ca2+sparks were recorded by a laser scanning confocal microscope (RADIANCE2000™ MP, Bio-Rad, UK) as previously described (Li et al., Circ Res, 2002; 90:309-316). Fluo-4 was excited at 488 nm and emission was recorded using 500/530 nm bandpass filter. To assess SR Ca2+content, caffeine (15 mmol/L) was rapidly perfused. Ca2+spark were analyzed as using SparkMaster (Picht et al., Am J Physiol Cell Physiol, 2007; 293:C1073-C1081).
Next, we asked whether RyR2 is activated by DPc10 and whether FKBP12.6 or CaM can prevent this. We assessed Ca^2+ sparks in permeabilized myocytes perfused with internal solution containing 50 nmol/L free Ca^2+ plus 1 μmol/L autocamtide-2-related inhibitory peptide (to inhibit CaMKII activity). Line-scan images were recorded after 3-hour incubations under control conditions and in the presence of 5 μmol/L DPc10, with or without 1 μmol/L CaM or 100 nmol/L FKBP12.6 (FIG. 14D).

RyR2 = RyR2 (Rattus norvegicus, UniProt B0LPN4); test: Steady-state F-DPc10 binding at the Z-line of saponin-permeabilized myocytes (confocal); design: endogenous in cells; host or cells: saponin-permeabilized adult rat ventricular myocytes
Protocol: Rat ventricular myocytes were isolated and permeabilized as previously described (Li et al., Circ Res, 2002; 90:309-316). All procedures were performed according to the Guiding Principles in the Care and Use of the Animals and were approved by the Council of American Physiological Society. DPc10, FKBP12.6, and CaM were labeled at specific sites with small fluorescence probes, similar to our previous studies (Guo et al., Circ Res, 2010; 106:1743-1752; Cornea et al., PNAS USA, 2009; 106:6128-6133; Guo et al., Biophys J, 2011; 101:2170-2177).
Confocal images was measured using a Biorad RADIANCE2100™ laser scanning confocal microscope equipped with an Argon ion laser, Green HeNe laser and with a Nikon Fluo x40 oil lens. FRET (fluorescence resonance energy transfer) experiments between CaM and DPc10, and FKBP12.6 and DPc10 were performed using an Olympus FV1000 confocal microscope. All experiments were done at room temperature.
Myocytes were exposed to […] F-DPc10, with intracellular [Ca^2+] ([Ca^2+]i) set at 50 nmol/L. F-DPc10 fluorescence is highest at the Z-lines, where RyR2 is concentrated, forming a typical cross-striated pattern. The difference between fluorescence intensity at the Z-line (Fz) and M-line (FM) is taken to represent [F-DPc10] specifically bound at the myocyte Z-line. We calibrated the bound [F-DPc10] in permeabilized myocytes using the linear relationship between F-DPc10 fluorescence and bath [F-DPc10] (FIG. 7B). […] To further test whether this Z-line-associated F-DPc10 represents RyR2-bound F-DPc10, we measured FRET between FKBP12.6 (known to specifically bind to RyR2 with subnanomolar affinity) (Guo et al., Circ Res, 2010; 106:1743-1752) and F-DPc10. […] Donor (AF568-FKBP12.6) fluorescence at the Z-line was quenched by HF647-DPc10, but the M-line signal was not (FIG. 9B). […]

[2] = DPc10 5 μmol/L, FKBP12.6 100 nmol/L, CaM 1 μmol/L

Chain of RyR2 (B0LPN4 whole entry): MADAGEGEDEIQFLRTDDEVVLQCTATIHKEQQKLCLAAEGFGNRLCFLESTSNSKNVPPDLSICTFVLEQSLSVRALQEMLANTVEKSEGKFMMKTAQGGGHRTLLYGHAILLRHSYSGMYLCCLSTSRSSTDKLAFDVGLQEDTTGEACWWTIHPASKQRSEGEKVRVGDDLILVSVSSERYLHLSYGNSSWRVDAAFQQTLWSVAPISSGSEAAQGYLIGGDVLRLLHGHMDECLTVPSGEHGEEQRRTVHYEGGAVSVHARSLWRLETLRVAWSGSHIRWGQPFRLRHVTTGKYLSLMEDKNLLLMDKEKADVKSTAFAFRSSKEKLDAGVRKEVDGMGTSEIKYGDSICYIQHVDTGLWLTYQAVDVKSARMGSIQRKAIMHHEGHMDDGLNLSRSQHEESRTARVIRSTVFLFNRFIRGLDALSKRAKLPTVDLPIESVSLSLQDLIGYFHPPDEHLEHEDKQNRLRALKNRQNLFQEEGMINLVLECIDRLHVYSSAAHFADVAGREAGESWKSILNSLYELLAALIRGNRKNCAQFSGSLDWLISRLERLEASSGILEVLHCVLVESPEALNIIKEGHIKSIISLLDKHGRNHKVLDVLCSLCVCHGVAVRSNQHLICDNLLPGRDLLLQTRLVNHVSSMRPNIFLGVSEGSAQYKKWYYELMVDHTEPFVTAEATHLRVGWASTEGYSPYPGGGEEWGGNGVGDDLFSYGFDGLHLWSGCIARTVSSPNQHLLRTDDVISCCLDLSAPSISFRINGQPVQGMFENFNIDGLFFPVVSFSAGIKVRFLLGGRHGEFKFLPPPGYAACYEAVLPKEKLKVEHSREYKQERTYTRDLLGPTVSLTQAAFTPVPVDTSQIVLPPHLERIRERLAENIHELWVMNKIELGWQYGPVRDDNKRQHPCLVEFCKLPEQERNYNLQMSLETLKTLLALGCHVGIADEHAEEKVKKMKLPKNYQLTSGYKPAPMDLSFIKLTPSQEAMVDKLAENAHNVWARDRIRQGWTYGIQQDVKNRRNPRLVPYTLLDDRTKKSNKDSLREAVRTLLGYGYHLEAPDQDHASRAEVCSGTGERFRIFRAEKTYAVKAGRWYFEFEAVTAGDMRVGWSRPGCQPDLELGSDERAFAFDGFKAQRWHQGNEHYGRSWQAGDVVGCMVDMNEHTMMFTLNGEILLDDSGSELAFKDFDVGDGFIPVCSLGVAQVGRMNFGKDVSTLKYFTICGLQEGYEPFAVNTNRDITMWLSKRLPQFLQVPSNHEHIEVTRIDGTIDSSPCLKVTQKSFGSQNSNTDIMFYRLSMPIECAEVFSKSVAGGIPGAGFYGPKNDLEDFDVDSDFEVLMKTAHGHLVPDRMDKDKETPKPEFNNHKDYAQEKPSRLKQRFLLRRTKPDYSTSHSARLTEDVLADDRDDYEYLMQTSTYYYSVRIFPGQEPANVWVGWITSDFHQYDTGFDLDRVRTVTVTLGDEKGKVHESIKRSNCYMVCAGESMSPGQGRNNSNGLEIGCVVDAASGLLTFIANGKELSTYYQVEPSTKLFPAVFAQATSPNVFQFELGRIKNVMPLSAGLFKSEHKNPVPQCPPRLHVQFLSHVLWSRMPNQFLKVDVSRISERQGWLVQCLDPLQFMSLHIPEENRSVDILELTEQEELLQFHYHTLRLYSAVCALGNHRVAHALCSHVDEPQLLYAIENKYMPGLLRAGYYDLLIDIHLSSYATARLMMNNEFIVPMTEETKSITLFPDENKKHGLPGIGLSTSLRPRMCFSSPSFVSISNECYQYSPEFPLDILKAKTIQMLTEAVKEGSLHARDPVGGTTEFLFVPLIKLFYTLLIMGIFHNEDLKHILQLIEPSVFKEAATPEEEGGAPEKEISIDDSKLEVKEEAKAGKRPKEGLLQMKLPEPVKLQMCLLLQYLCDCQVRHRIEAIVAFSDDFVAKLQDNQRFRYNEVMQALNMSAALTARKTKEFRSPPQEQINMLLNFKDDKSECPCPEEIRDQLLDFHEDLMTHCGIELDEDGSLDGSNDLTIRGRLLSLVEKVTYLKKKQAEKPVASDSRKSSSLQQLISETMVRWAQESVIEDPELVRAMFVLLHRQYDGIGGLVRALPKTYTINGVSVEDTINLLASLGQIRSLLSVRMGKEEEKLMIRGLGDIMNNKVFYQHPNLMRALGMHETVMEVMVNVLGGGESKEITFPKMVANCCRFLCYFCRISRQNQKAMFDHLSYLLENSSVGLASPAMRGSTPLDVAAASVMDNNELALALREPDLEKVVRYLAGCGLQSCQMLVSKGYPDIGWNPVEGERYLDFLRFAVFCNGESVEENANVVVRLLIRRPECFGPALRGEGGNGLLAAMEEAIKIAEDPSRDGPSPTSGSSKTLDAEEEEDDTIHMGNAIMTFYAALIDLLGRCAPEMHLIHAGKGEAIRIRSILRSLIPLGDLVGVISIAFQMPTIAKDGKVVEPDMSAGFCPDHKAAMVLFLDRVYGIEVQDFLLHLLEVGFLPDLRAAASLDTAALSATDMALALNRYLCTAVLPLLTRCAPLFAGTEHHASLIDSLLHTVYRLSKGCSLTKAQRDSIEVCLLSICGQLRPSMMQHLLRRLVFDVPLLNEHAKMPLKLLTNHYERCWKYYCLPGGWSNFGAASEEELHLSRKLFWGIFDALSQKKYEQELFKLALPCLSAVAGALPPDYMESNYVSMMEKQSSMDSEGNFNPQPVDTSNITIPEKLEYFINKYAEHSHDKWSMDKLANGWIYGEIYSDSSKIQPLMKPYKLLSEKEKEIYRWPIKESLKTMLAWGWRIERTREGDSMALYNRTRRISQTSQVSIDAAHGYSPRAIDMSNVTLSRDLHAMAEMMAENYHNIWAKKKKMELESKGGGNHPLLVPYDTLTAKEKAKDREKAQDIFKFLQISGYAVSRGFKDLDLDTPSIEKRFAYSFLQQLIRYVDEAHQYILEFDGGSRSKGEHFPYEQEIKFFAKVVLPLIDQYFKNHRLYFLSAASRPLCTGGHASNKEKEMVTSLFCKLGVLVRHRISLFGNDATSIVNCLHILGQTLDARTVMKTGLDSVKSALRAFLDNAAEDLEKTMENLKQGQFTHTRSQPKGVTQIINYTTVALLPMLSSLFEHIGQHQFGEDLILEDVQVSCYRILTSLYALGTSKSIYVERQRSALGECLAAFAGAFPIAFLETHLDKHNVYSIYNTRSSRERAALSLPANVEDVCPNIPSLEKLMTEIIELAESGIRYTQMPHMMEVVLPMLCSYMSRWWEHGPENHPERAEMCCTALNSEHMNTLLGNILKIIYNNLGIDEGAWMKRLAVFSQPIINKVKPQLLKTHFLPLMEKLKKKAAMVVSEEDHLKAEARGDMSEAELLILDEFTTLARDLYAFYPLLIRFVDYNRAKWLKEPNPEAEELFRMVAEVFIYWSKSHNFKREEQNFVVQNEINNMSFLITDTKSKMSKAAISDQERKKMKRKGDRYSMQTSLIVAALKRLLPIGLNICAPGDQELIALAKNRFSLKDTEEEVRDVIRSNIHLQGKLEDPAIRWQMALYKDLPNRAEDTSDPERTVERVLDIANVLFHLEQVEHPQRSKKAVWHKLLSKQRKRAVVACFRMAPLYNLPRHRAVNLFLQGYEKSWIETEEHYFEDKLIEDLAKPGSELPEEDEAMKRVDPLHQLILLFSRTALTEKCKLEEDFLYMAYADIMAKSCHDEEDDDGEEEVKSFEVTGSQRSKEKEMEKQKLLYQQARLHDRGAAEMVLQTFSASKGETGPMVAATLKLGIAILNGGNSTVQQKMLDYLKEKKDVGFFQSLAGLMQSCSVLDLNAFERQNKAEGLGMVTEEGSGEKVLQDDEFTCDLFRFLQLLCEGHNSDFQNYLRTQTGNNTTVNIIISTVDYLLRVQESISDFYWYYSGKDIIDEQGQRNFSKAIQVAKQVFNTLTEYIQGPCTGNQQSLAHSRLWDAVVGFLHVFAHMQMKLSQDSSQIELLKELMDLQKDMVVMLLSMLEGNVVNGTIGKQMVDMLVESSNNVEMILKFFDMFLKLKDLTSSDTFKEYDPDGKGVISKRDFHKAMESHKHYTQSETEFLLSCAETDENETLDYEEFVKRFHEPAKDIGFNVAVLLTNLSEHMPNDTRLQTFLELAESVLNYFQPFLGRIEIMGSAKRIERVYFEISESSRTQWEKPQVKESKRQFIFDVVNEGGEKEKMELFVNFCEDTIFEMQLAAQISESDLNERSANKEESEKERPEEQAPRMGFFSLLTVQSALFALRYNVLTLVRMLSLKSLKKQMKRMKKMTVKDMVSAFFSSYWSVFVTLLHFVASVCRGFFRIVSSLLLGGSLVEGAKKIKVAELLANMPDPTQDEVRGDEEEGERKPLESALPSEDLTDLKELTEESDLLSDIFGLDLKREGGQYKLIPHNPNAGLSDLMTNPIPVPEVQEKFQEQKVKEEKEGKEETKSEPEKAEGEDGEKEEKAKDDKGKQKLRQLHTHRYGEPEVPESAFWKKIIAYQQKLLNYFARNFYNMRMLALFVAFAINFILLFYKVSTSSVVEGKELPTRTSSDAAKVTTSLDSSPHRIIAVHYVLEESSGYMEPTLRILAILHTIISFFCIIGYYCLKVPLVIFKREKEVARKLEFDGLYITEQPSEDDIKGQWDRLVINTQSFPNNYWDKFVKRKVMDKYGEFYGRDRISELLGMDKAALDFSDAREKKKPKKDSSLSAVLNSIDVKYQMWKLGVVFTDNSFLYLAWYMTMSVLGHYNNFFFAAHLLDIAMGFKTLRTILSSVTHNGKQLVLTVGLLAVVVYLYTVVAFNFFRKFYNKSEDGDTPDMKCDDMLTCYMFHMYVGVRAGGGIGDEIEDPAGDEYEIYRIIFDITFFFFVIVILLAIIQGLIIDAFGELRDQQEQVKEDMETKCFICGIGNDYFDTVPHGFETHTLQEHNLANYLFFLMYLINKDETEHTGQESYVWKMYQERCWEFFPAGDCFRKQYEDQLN

“GFCPDHKAAMVLFLDRVYGIEVQDFLLHLLEVGFLP [DPc10]” was tested, and the “Ca2+ spark frequency (CaSpF) vs control” value ([1]; 5 μmol/L DPc10, 3-hour incubation, 50 nmol/L free Ca2+, 1 μmol/L AIP) was “robustly increased”, the “Ca2+ spark FDHM” value [1, 2] was 58.5 ± 1.00 ms and the “Ca2+ spark FWHM” value [1, 2] was 1.34 ± 0.01 μm. The “Ca2+ spark Peak (F/F0)” value [1, 2] was 0.475 ± 0.004 F/F0, the “SR Ca2+ content vs control (caffeine-induced Ca2+ release)” value ([1]; permeabilized myocytes) was “significantly lower” and the Kd (RyR2) was about 500 nM. It also gave a Bmax value (RyR2; summary in Discussion) of 1.6 µmol/L.
